Data taken from the NIST ThermoML archive (doi:10.1016/j.jct.2013.12.033).
Numbers after ± are expanded uncertainties.

Settings: Liquid, Closed cell (Static) method

Row | SMILES | vapor or sublimation pressure (273.15 K) | vapor or sublimation pressure (283.15 K) | vapor or sublimation pressure (293.15 K) | vapor or sublimation pressure (303.15 K) | vapor or sublimation pressure (313.15 K) | vapor or sublimation pressure (323.15 K) | vapor or sublimation pressure (333.15 K) | vapor or sublimation pressure (343.15 K) | vapor or sublimation pressure (353.15 K) | vapor or sublimation pressure (363.15 K)
1 | c1ccncc1 [pyridine] | 0.5993 ± 0.037 kPa | 1.136 ± 0.071 kPa | 2.049 ± 0.12 kPa | 3.535 ± 0.21 kPa | 5.863 ± 0.35 kPa | 9.383 ± 0.56 kPa | 14.55 ± 0.88 kPa | 21.92 ± 1.3 kPa | 32.17 ± 1.9 kPa | 46.13 ± 2.8 kPa
2 | c1ccsc1 [thiophene] | 2.778 ± 0.17 kPa | 4.893 ± 0.29 kPa | 8.217 ± 0.49 kPa | 13.23 ± 0.8 kPa | 20.52 ± 1.2 kPa | 30.8 ± 1.9 kPa | 44.88 ± 2.7 kPa | 63.71 ± 3.8 kPa | 88.33 ± 5.3 kPa | 119.9 ± 7.2 kPa
